Reference: patent US9439428B2, “Herbicidal compounds” (SYNGENTA LIMITED, priority 2011, dated 2016)

What was measured:
Format in all cases: in vivo
Conditions in all cases: 1000 g/h, evaluated after 13 days, five point scale
[1] = system: Abuthilon theophrasti (ABUTH); experiment: Post-emergence herbicidal glasshouse test
Procedure: (§1) Seeds of a variety of test species are sown in standard soil in pots (Alopecurus myosuroides (ALOMY), Setaria faberi (SETFA), Echinochloa crus-galli (ECHCG), Abuthilon theophrasti (ABUTH) and Amaranthus retoflexus (AMARE)). After cultivation for one day (pre-emergence) or after 8 days cultivation (post-emergence) under controlled conditions in a glasshouse (at 24/16° C., day/night; 14 hours light; 65% humidity), the plants are sprayed with an aqueous spray solution derived from the formulation of the technical active ingredient in acetone/water (50:50) solution containing 0.5% Tween 20 (polyoxyethelyene sorbitan monolaurate, CAS RN 9005-64-5). Compounds ae applied at 1000 g/h. The test plants are then grown in a glasshouse under controlled conditions in a glasshouse (at 24/16° C., day/night; 14 hours light; 65% humidity) and watered twice daily. After 13 days for pre and post-emergence, the test is evaluated for the percentage herbicidal damage caused to the plant. The biological activities are shown in the following table on a five point scale (5=80-100% damage; 4=60-79% damage; 3=40-59% damage; 2=20-39% damage; 1=0-19% damage).

[2] = system: Alopecurus myosuroides (ALOMY); experiment: Post-emergence herbicidal glasshouse test
Procedure: as §1

[3] = system: Amaranthus retoflexus (AMARE); experiment: Post-emergence herbicidal glasshouse test
Procedure: as §1

[4] = system: Echinochloa crus-galli (ECHCG); experiment: Post-emergence herbicidal glasshouse test
Procedure: as §1

Setaria faberi (SETFA) [5] = experiment: Post-emergence herbicidal glasshouse test
Procedure: as §1

[6] = system: Abuthilon theophrasti (ABUTH); experiment: Pre-emergence herbicidal glasshouse test
Procedure: as §1

[7] = system: Alopecurus myosuroides (ALOMY); experiment: Pre-emergence herbicidal glasshouse test
Procedure: as §1

[8] = system: Amaranthus retoflexus (AMARE); experiment: Pre-emergence herbicidal glasshouse test
Procedure: as §1

[9] = system: Echinochloa crus-galli (ECHCG); experiment: Pre-emergence herbicidal glasshouse test
Procedure: as §1

Setaria faberi (SETFA) [10] = experiment: Pre-emergence herbicidal glasshouse test
Procedure: as §1

Cc1cc(C(=O)C2C(=O)C(C)(C)C(=O)C(C)(C)C2=O)c(=O)n(-c2ccccc2)n1 [Compound 1.8]
5 (5=80-100% damage): percentage herbicidal damage, ABUTH, POST Application [1] | percentage herbicidal damage, ALOMY, POST Application [2] | percentage herbicidal damage, AMARE, POST Application [3] | percentage herbicidal damage, ECHCG, POST Application [4] | percentage herbicidal damage, SETFA, POST Application (Setaria faberi (SETFA) [5]) | percentage herbicidal damage, ABUTH, PRE Application [6] | percentage herbicidal damage, ALOMY, PRE Application [7] | percentage herbicidal damage, AMARE, PRE Application [8] | percentage herbicidal damage, ECHCG, PRE Application [9] | percentage herbicidal damage, SETFA, PRE Application (Setaria faberi (SETFA) [10])

Cc1cc(C(=O)C2C(=O)C3CCC(C3)C2=O)c(=O)n(-c2ccccc2)n1 (stereo not drawn) [Compound 1.7]
5 (5=80-100% damage): percentage herbicidal damage, ABUTH, POST Application [1] | percentage herbicidal damage, ALOMY, POST Application [2] | percentage herbicidal damage, AMARE, POST Application [3] | percentage herbicidal damage, ECHCG, POST Application [4] | percentage herbicidal damage, SETFA, POST Application (Setaria faberi (SETFA) [5]) | percentage herbicidal damage, ABUTH, PRE Application [6] | percentage herbicidal damage, ALOMY, PRE Application [7] | percentage herbicidal damage, AMARE, PRE Application [8] | percentage herbicidal damage, ECHCG, PRE Application [9] | percentage herbicidal damage, SETFA, PRE Application (Setaria faberi (SETFA) [10])

Cc1cc(C(=O)C2C(=O)CC(C)CC2=O)c(=O)n(-c2ccccc2C)n1 (stereo not drawn) [Compound 1.6]
5 (5=80-100% damage): percentage herbicidal damage, ABUTH, POST Application [1] | percentage herbicidal damage, ALOMY, POST Application [2] | percentage herbicidal damage, AMARE, POST Application [3] | percentage herbicidal damage, ECHCG, POST Application [4] | percentage herbicidal damage, SETFA, POST Application (Setaria faberi (SETFA) [5]) | percentage herbicidal damage, ABUTH, PRE Application [6] | percentage herbicidal damage, ALOMY, PRE Application [7] | percentage herbicidal damage, AMARE, PRE Application [8] | percentage herbicidal damage, ECHCG, PRE Application [9] | percentage herbicidal damage, SETFA, PRE Application (Setaria faberi (SETFA) [10])

COc1ccc(-n2nc(C)cc(C(=O)C3C(=O)CC(C)CC3=O)c2=O)cc1 (stereo not drawn) [Compound 1.5]
5 (5=80-100% damage): percentage herbicidal damage, ABUTH, POST Application [1] | percentage herbicidal damage, ALOMY, POST Application [2] | percentage herbicidal damage, AMARE, POST Application [3] | percentage herbicidal damage, ECHCG, POST Application [4] | percentage herbicidal damage, SETFA, POST Application (Setaria faberi (SETFA) [5]) | percentage herbicidal damage, ABUTH, PRE Application [6] | percentage herbicidal damage, ALOMY, PRE Application [7] | percentage herbicidal damage, AMARE, PRE Application [8] | percentage herbicidal damage, ECHCG, PRE Application [9] | percentage herbicidal damage, SETFA, PRE Application (Setaria faberi (SETFA) [10])

COc1ccc(-n2nc(C)cc(C(=O)C3C(=O)C4CCC(C4)C3=O)c2=O)cc1 (stereo not drawn) [Compound 1.4]
5 (5=80-100% damage): percentage herbicidal damage, ABUTH, POST Application [1] | percentage herbicidal damage, ALOMY, POST Application [2] | percentage herbicidal damage, AMARE, POST Application [3] | percentage herbicidal damage, ECHCG, POST Application [4] | percentage herbicidal damage, SETFA, POST Application (Setaria faberi (SETFA) [5]) | percentage herbicidal damage, ABUTH, PRE Application [6] | percentage herbicidal damage, ALOMY, PRE Application [7] | percentage herbicidal damage, AMARE, PRE Application [8] | percentage herbicidal damage, ECHCG, PRE Application [9] | percentage herbicidal damage, SETFA, PRE Application (Setaria faberi (SETFA) [10])

Cc1cc(C(=O)C2C(=O)CC(C)CC2=O)c(=O)n(-c2ccccc2)n1 (stereo not drawn) [Compound 1.9]
5 (5=80-100% damage): percentage herbicidal damage, ABUTH, POST Application [1] | percentage herbicidal damage, ALOMY, POST Application [2] | percentage herbicidal damage, AMARE, POST Application [3] | percentage herbicidal damage, ECHCG, POST Application [4] | percentage herbicidal damage, SETFA, POST Application (Setaria faberi (SETFA) [5]) | percentage herbicidal damage, ABUTH, PRE Application [6] | percentage herbicidal damage, ALOMY, PRE Application [7] | percentage herbicidal damage, AMARE, PRE Application [8] | percentage herbicidal damage, ECHCG, PRE Application [9] | percentage herbicidal damage, SETFA, PRE Application (Setaria faberi (SETFA) [10])

Cc1cc(C(=O)C2C(=O)CCCC2=O)c(=O)n(-c2ccccc2)n1 [Compound 1.2, 2-(6-Methyl-3-oxo-2-phenyl-2,3-dihydropyridazine-4-carbonyl)-cyclohexane-1,3-dione]
5 (5=80-100% damage): percentage herbicidal damage, ABUTH, POST Application [1] | percentage herbicidal damage, ALOMY, POST Application [2] | percentage herbicidal damage, AMARE, POST Application [3] | percentage herbicidal damage, ECHCG, POST Application [4] | percentage herbicidal damage, SETFA, POST Application (Setaria faberi (SETFA) [5]) | percentage herbicidal damage, ABUTH, PRE Application [6] | percentage herbicidal damage, ALOMY, PRE Application [7] | percentage herbicidal damage, AMARE, PRE Application [8] | percentage herbicidal damage, ECHCG, PRE Application [9] | percentage herbicidal damage, SETFA, PRE Application (Setaria faberi (SETFA) [10])

O=C1CCCC(=O)C1C(=O)c1ccnn(-c2ccccc2)c1=O [Compound 1.1, 2-(3-Oxo-2-phenyl-2,3-dihydropyridazine-4-carbonyl)-cyclohexane-1,3-dione]
5 (5=80-100% damage): percentage herbicidal damage, ABUTH, POST Application [1] | percentage herbicidal damage, ALOMY, POST Application [2] | percentage herbicidal damage, AMARE, POST Application [3] | percentage herbicidal damage, ECHCG, POST Application [4] | percentage herbicidal damage, SETFA, POST Application (Setaria faberi (SETFA) [5]) | percentage herbicidal damage, ABUTH, PRE Application [6] | percentage herbicidal damage, ALOMY, PRE Application [7] | percentage herbicidal damage, AMARE, PRE Application [8] | percentage herbicidal damage, ECHCG, PRE Application [9] | percentage herbicidal damage, SETFA, PRE Application (Setaria faberi (SETFA) [10])

COc1ccc(-n2nc(C)cc(C(=O)C3C(=O)CCCC3=O)c2=O)cc1 [Compound 1.3]
5 (5=80-100% damage): percentage herbicidal damage, ABUTH, POST Application [1] | percentage herbicidal damage, ALOMY, POST Application [2] | percentage herbicidal damage, AMARE, POST Application [3] | percentage herbicidal damage, ECHCG, POST Application [4] | percentage herbicidal damage, SETFA, POST Application (Setaria faberi (SETFA) [5]) | percentage herbicidal damage, ABUTH, PRE Application [6] | percentage herbicidal damage, ALOMY, PRE Application [7] | percentage herbicidal damage, AMARE, PRE Application [8] | percentage herbicidal damage, ECHCG, PRE Application [9] | percentage herbicidal damage, SETFA, PRE Application (Setaria faberi (SETFA) [10])
